Test results reported in patent US20040171680A1, “Treating Syndrome X with substituted tetralins and indanes” (priority 2002, published 2004).

What was measured:
PPARδ = biological target: T1, PPARδ (Homo sapiens, UniProt Q03181); assay: Transfection Assay for PPARδ Receptors (PPAR-Gal4 / Gal4-Luciferase reporter in HEK293 cells); type: cell-based; details: values in square brackets
T1 construct: a Gal4-Luciferase reporter is co-transfected
T1 sequence (Q03181 171-441 limits assumed): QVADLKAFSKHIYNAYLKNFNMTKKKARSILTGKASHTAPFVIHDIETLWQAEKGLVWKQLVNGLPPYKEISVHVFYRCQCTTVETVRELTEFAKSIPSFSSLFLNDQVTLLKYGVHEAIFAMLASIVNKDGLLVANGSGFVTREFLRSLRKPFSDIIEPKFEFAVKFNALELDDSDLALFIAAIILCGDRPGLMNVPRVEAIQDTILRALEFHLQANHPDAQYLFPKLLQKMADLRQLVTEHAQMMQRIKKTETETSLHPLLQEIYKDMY
Procedure, shortened: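 HEK293 cells co-transfected with PPAR-Gal4 receptor and Gal4-luciferase reporter, then moved into 5% charcoal-treated FBS medium. Compounds applied for 24 h at 37 °C, 5% CO2; luciferase activity read with Steady-Glo.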

PPARγ = biological target: T2, PPARγ (Homo sapiens, UniProt P37231); assay: aP2 Assay for PPAR gamma Agonists (bDNA aP2 mRNA in preadipocytes); type: cell-based; details: values in square brackets
T2 construct: Following the challenge of the preadipocytes, cells may be lysed with lysis buffer; endogenous in cells; host or cells: preadipocytes
T2 sequence (P37231 1-505): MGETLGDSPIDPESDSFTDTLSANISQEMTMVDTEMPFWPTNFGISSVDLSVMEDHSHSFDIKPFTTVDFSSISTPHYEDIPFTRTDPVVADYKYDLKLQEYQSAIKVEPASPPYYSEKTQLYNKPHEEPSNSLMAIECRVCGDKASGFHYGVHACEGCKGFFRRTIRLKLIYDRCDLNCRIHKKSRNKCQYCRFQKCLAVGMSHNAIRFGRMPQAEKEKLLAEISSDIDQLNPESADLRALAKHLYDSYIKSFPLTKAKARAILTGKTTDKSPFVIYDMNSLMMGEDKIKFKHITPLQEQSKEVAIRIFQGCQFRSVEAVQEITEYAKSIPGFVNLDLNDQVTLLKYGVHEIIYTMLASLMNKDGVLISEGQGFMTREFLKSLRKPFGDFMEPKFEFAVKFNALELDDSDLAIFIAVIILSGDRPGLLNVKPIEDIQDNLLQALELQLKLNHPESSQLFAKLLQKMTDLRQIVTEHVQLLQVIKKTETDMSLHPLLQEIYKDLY

ob/ob mice = assay: 11 day oral dosing in female ob/ob mice; type: in vivo; details: 1.0 mpk, once daily oral gavage for 11 days, % change compared to vehicle
Method: 11 Day Dosing of Example in Female, 7 week Old ob/ob Mice
(Female ob/ob mice (C57 BL/6J-Lep^ob, Jackson Labs, Bar Harbor, Me.), 7 weeks of age, were housed two per cage in solid-bottomed shoe box cages. Room temperature was maintained at 68-72° F. and humidity at 50-65%. Room lighting was on a 12-hour light/12-hour dark cycle. Mice were fed a certified NIH Rat and Mouse diet #5K50 (P M I Nutrition Int'l, St. Louis, Mo., via W. F. Fisher and Son, Inc., Bound Brook, N.J.). Food and water were supplied ad libitum.
The compound was prepared as suspensions in 0.5% hydroxypropylmethylcellulose (Dow Chemical, Midland, Mich.). The dosing volume was 10 mL/kg of body weight. Female ob/ob diabetic mice (8/group) were orally gavaged once daily for 11 days with either 0.5% methylcellulose in dH2O (vehicle) or PPAR agonist at 0.003, 0.01, 0.03, 0.1, 0.3, 1 mg/kg/day. Body weight was measured in the mornings on Day 1, prior to dosing, and on Day 12 before bleeding. 18 hours after the final dose for each group, the mice were anesthetized with CO2/O2 (70%:30%) and bled by retro-orbital sinus puncture into micro-tubes containing clog activator and then put in ice. […] Serum glucose and triglycerides were determined by using COBAS Mira Plus blood chemistry analyzer (Roche Diagnostics, N.J.). Serum insulin and free fatty acids were measured by using ALPCO insulin ELISA kit and Wako NEFA kit, respectively. […]

- EC50 (PPARδ): > 3 µM
- EC50 (PPARγ): > 3 µM
SMILES: CCN(C(=O)Nc1ccc(OC(F)(F)F)cc1)C1CCc2cc(SC(C)(C)C(=O)O)c(F)cc2C1 (stereo not drawn) [Example 50, 2-{6-[1-Ethyl-3-(4-trifluoromethoxyphenyl)ureido]-3-fluoro-5,6,7,8-tetrahydronaphthalen-2-ylsulfanyl}-2-methylpropionic acid]
- Δ Plasma TG (ob/ob mice): −86%
